Target: T1, ΔF508-CFTR (Homo sapiens, UniProt P13569, DEL508-508)
T1 construct: expressed in transfected cells
Assay: Membrane potential optical assay (FRET voltage-sensor dyes, VIPR), identification of potentiator compounds
Assay type: cell-based
Settings: Table 3; assay not given
Procedure, shortened: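 Potentiator screen measured membrane potential via FRET between CC2-DMPE donor and DiSBAC2(3), read on VIPR II. Compound went in with the first addition of chloride-free gluconate bath; cells were ΔF508-CFTR-expressing NIH3T3 mouse fibroblasts, temperature-corrected at 27 °C for 24 h.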

T1 sequence (P13569 with tags, fused parts or gaps DEL508-508): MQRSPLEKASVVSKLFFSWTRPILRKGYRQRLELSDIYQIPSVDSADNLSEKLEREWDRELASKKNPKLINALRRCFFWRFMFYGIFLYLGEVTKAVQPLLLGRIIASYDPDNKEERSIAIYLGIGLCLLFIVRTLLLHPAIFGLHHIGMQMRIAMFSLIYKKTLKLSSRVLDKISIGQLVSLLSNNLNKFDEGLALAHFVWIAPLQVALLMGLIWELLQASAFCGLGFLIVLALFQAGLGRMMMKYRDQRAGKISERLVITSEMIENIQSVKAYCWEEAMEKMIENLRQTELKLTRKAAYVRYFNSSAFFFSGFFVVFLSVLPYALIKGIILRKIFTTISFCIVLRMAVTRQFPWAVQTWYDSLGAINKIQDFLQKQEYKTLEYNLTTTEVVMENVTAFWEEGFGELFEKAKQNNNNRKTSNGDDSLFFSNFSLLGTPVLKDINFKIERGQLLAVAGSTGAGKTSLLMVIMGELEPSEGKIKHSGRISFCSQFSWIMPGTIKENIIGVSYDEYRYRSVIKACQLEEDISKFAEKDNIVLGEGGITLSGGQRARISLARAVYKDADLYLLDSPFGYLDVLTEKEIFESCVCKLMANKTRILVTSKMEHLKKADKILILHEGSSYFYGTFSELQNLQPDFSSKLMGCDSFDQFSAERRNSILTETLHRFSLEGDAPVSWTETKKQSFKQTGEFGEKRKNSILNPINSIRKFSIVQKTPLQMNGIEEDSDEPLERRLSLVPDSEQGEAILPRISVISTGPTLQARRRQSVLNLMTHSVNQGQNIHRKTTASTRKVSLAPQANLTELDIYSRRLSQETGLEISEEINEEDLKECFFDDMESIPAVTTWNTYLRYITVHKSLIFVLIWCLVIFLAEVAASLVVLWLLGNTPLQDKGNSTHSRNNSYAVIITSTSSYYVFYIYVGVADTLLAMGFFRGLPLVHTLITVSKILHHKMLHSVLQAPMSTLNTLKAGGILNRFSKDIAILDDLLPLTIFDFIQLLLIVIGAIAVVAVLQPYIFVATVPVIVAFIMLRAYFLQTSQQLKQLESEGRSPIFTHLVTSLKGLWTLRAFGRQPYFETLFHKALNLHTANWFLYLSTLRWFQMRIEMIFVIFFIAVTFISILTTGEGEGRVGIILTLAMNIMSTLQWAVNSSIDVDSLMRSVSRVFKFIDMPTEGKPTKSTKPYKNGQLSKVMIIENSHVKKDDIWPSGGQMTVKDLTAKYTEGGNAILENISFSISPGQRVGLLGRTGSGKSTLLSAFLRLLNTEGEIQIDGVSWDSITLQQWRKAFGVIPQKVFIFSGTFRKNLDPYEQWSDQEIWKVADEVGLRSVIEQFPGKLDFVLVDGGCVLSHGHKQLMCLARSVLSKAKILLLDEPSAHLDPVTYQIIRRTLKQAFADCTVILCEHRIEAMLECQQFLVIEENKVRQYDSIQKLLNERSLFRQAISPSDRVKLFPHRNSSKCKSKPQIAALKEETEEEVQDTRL

| EC50 [µM] | Structure (SMILES) |
| --- | --- |
| < 10 | O=C(Nc1ccccc1-c1cccc(F)c1)c1c[nH]c2ccccc2c1=O [Compound 277, N-[2-(3-fluorophenyl)phenyl]-4-oxo-1H-quinoline-3-carboxamide] |
| < 10 | CSc1ccccc1-c1ccccc1NC(=O)c1c[nH]c2ccccc2c1=O [Compound 279, N-[2-(2-methylsulfanylphenyl)phenyl]-4-oxo-1H-quinoline-3-carboxamide] |
| < 10 | COC(=O)c1cccc(-c2ccccc2NC(=O)c2c[nH]c3ccccc3c2=O)c1 [Compound 68, 3-[2-[(4-oxo-1H-quinolin-3-yl)carbonylamino]phenyl]benzoic acid methyl ester] |

Same assay, conditions: Table 3; assay not given; read-out: % Activity (% Efficacy, relative efficacy)

| Structure (SMILES) | Emax [%] |
| --- | --- |
| O=C(Nc1ccc(Sc2ccccc2)cc1)c1c[nH]c2ccccc2c1=O [Compound 470, 4-oxo-N-(4-phenylsulfanylphenyl)-1H-quinoline-3-carboxamide] | 25 to 100 |
| COc1nc2ccccc2c(OC)c1C(=O)Nc1cc(NC(=O)OC(C)(C)C)ccc1C(C)(C)C [Compound 39, [3-[(2,4-dimethoxy-3-quinolyl)carbonylamino]-4-tert-butyl-phenyl]aminoformic acid tert-butyl ester] | 25 to 100 |
| O=C(Nc1ccc(N2CC[C@H](O)C2)cc1C(F)(F)F)c1c[nH]c2ccccc2c1=O [Compound 655, (S)-N-(4-(3-hydroxypyrrolidin-1-yl)-2-(trifluoromethyl)phenyl)-4-oxo-1,4-dihydroquinoline-3-carboxamide] | 25 to 100 |
| CC(=O)c1ccc(-c2ccccc2NC(=O)c2c[nH]c3ccccc3c2=O)s1 [Compound 174, N-[2-(5-acetyl-2-thienyl)phenyl]-4-oxo-1H-quinoline-3-carboxamide] | 25 to 100 |
| CCOC(=O)NCC(C)(C)c1ccc(NC(=O)c2c[nH]c3ccccc3c2=O)cc1 [Compound 119, [2-methyl-2-[4-[(4-oxo-1H-quinolin-3-yl)carbonylamino]phenyl]-propyl]aminoformic acid ethyl ester] | 25 to 100 |
| O=C(Nc1ccc(N2CCC[C@@H]2CO)cc1C(F)(F)F)c1c[nH]c2ccccc2c1=O [Compound 670, (R)-N-(4-(2-(hydroxymethyl)pyrrolidin-1-yl)-2-(trifluoromethyl)phenyl)-4-oxo-1,4-dihydroquinoline-3-carboxamide] | 25 to 100 |
| O=C(Nc1ccc2ccccc2c1)c1c[nH]c2ccccc2c1=O [Compound 481, N-(2-naphthyl)-4-oxo-1H-quinoline-3-carboxamide] | 25 to 100 |
| COc1ccc(NC(=O)c2c[nH]c3ccccc3c2=O)cc1 [Compound 439, N-(4-methoxyphenyl)-4-oxo-1H-quinoline-3-carboxamide] | 25 to 100 |
| CC(C)(C)OC(=O)N1CCC2(CCNc3cc(NC(=O)c4c[nH]c5ccccc5c4=O)ccc32)CC1 [Compound 238, 7′-[(4-oxo-1H-quinolin-3-ylcarbonyl)amino]-spiro[piperidine-4,4′(1′H)-quinoline], 2′,3′-dihydro-carboxylic acid tert-butyl ester] | 25 to 100 |
| COc1cccc(-c2ccccc2NC(=O)c2c[nH]c3ccccc3c2=O)c1 [Compound 283, N-[2-(3-methoxyphenyl)phenyl]-4-oxo-1H-quinoline-3-carboxamide] | > 100 |
| COC(=O)c1cccc(-c2ccccc2NC(=O)c2c[nH]c3ccccc3c2=O)c1 [Compound 68, 3-[2-[(4-oxo-1H-quinolin-3-yl)carbonylamino]phenyl]benzoic acid methyl ester] | 25 to 100 |
| CCc1cccc(C(C)CC)c1NC(=O)c1c[nH]c2ccccc2c1=O (stereo not drawn) [Compound 322, N-(2-ethyl-6-sec-butyl-phenyl)-4-oxo-1H-quinoline-3-carboxamide] | 25 to 100 |
| CC(=O)Nc1cccc(NC(=O)c2c[nH]c3ccccc3c2=O)c1 [Compound 419, N-(3-acetylaminophenyl)-4-oxo-1H-quinoline-3-carboxamide] | < 25 |
| CCc1cccc(C)c1NC(=O)c1c[nH]c2ccccc2c1=O [Compound 180, N-(2-ethyl-6-methyl-phenyl)-4-oxo-1H-quinoline-3-carboxamide] | 25 to 100 |
| CN(C)c1cccc(NC(=O)c2c[nH]c3ccccc3c2=O)c1 [Compound 418, N-(3-dimethylaminophenyl)-4-oxo-1H-quinoline-3-carboxamide] | 25 to 100 |
| C=Cc1ccc(NC(=O)c2c[nH]c3ccccc3c2=O)cc1 [Compound 452, 4-oxo-N-(4-vinylphenyl)-1H-quinoline-3-carboxamide] | 25 to 100 |
| O=C(Nc1ccc(OC(F)(F)F)cc1)c1c[nH]c2ccccc2c1=O [Compound 176, 4-oxo-N-[4-(trifluoromethoxy)phenyl]-1H-quinoline-3-carboxamide] | 25 to 100 |
| CC(C)Cc1ccc(-c2ccccc2NC(=O)c2c[nH]c3ccccc3c2=O)cc1 [Compound 391, N-[2-(4-isobutylphenyl)phenyl]-4-oxo-1H-quinoline-3-carboxamide] | 25 to 100 |

Results, then the molecule that gave them:

| Emax [%] | Structure (SMILES) |
| --- | --- |
| 25 to 100 | O=C(Nc1ccccc1-c1ccc(F)c(F)c1)c1c[nH]c2ccccc2c1=O [Compound 76, N-[2-(3,4-difluorophenyl)phenyl]-4-oxo-1H-quinoline-3-carboxamide] |
| < 25 | Cc1cccc(NC(=O)c2c[nH]c3ccccc3c2=O)n1 [Compound 173, N-(6-methyl-2-pyridyl)-4-oxo-1H-quinoline-3-carboxamide] |
| > 100 | O=C(Nc1ccccc1-c1cccc(F)c1)c1c[nH]c2ccccc2c1=O [Compound 277, N-[2-(3-fluorophenyl)phenyl]-4-oxo-1H-quinoline-3-carboxamide] |
| 25 to 100 | COc1ccc2[nH]cc(C(=O)Nc3ccc(N4CCC[C@@H]4C)cc3C(F)(F)F)c(=O)c2c1 [Compound 601, (S)-6-methoxy-N-(4-(2-methylpyrrolidin-1-yl)-2-(trifluoromethyl)phenyl)-4-oxo-1,4-dihydroquinoline-3-carboxamide] |
| 25 to 100 | CC(C)(C)c1cc(F)c(NC(=O)c2c[nH]c3cc(C#N)ccc3c2=O)cc1O [Compound 677, 7-cyano-N-(2-fluoro-5-hydroxy-4-tert-butyl-phenyl)-4-oxo-1H-quinoline-3-carboxamide] |
| 25 to 100 | COc1ccc(-c2ccccc2NC(=O)c2c[nH]c3ccccc3c2=O)c(OC)c1 [Compound 312, N-[2-(2,4-dimethoxyphenyl)phenyl]-4-oxo-1H-quinoline-3-carboxamide] |
| 25 to 100 | CC(C)(C)c1cc2cc[nH]c2cc1NC(=O)c1c[nH]c2cc(OC(F)(F)F)ccc2c1=O [Compound 632, 4-oxo-N-(5-tert-butyl-1H-indol-6-yl)-7-(trifluoromethoxy)-1H-quinoline-3-carboxamide] |
| 25 to 100 | Cc1c[nH]c2cccc(NC(=O)c3c[nH]c4ccccc4c3=O)c12 [Compound 338, N-(3-methyl-1H-indol-4-yl)-4-oxo-1H-quinoline-3-carboxamide] |
| 25 to 100 | CC(C)(C)c1cc(C(F)(F)F)c(NC(=O)c2c[nH]c3ccc(F)cc3c2=O)cc1O [Compound 509, 6-fluoro-N-[5-hydroxy-4-tert-butyl-2-(trifluoromethyl)phenyl]-4-oxo-1H-quinoline-3-carboxamide] |
| > 100 | CC(C)(C)c1cc2cc[nH]c2cc1NC(=O)c1c[nH]c2ccc(F)cc2c1=O [Compound 124, 6-fluoro-4-oxo-N-(5-tert-butyl-1H-indol-6-yl)-1H-quinoline-3-carboxamide] |
| > 100 | C=C(C)c1ccccc1NC(=O)c1c[nH]c2ccccc2c1=O [Compound 445, N-(2-isopropenylphenyl)-4-oxo-1H-quinoline-3-carboxamide] |
| 25 to 100 | CSc1ccccc1-c1ccccc1NC(=O)c1c[nH]c2ccccc2c1=O [Compound 279, N-[2-(2-methylsulfanylphenyl)phenyl]-4-oxo-1H-quinoline-3-carboxamide] |
| 25 to 100 | COCCOCC(C)(C)c1ccc(NC(=O)c2c[nH]c3ccccc3c2=O)cc1O [Compound 126, N-[3-hydroxy-4-[2-(2-methoxyethoxy)-1,1-dimethyl-ethyl]-phenyl]-4-oxo-1H-quinoline-3-carboxamide] |
| 25 to 100 | CCc1cc(C(C)(C)C)c(O)cc1NC(=O)c1c[nH]c2ccc(F)cc2c1=O [Compound 649, N-(2-ethyl-5-hydroxy-4-tert-butyl-phenyl)-6-fluoro-4-oxo-1H-quinoline-3-carboxamide] |
| 25 to 100 | COc1cc(NC(=O)c2c[nH]c3ccc(F)cc3c2=O)cc(C(F)(F)F)c1 [Compound 666, 6-fluoro-N-[3-methoxy-5-(trifluoromethyl)phenyl]-4-oxo-1H-quinoline-3-carboxamide] |
| 25 to 100 | CC(C)(C)c1cc(C(C)(C)C)c(NC(=O)c2c[nH]c3cc(C#N)ccc3c2=O)cc1O [Compound 548, 7-cyano-N-(5-hydroxy-2,4-ditert-butyl-phenyl)-4-oxo-1H-quinoline-3-carboxamide] |
| 25 to 100 | CCOC(=O)c1cc2cc[nH]c2cc1NC(=O)c1c[nH]c2ccccc2c1=O [Compound 188, 6-[(4-oxo-1H-quinolin-3-yl)carbonylamino]-1H-indole-5-carboxylic acid ethyl ester] |
| 25 to 100 | CC(C)(C)c1cc(C(F)(F)F)c(NC(=O)c2c[nH]c3ccccc3c2=O)cc1O [Compound 266, N-[5-hydroxy-4-tert-butyl-2-(trifluoromethyl)phenyl]-4-oxo-1H-quinoline-3-carboxamide] |
| 25 to 100 | Cc1ccc(NC(=O)c2c[nH]c3ccccc3c2=O)c(C)c1 [Compound 281, N-(2,4-dimethylphenyl)-4-oxo-1H-quinoline-3-carboxamide] |
| 25 to 100 | CC(C)c1ccccc1NC(=O)c1c[nH]c2ccccc2c1=O [Compound 36, N-(2-isopropylphenyl)-4-oxo-1H-quinoline-3-carboxamide] |
| 25 to 100 | N#CCc1c[nH]c2cc(NC(=O)c3c[nH]c4ccccc4c3=O)ccc12 [Compound 96, N-[3-(cyanomethyl)-1H-indol-6-yl]-4-oxo-1H-quinoline-3-carboxamide] |
| 25 to 100 | COc1cc(NC(=O)c2c[nH]c3cccc(O)c3c2=O)cc(C(F)(F)F)c1 [Compound 502, 5-hydroxy-N-[3-methoxy-5-(trifluoromethyl)phenyl]-4-oxo-1H-quinoline-3-carboxamide] |
| 25 to 100 | Cc1ccc(NC(=O)c2c[nH]c3ccccc3c2=O)cc1 [Compound 31, 4-oxo-N-(p-tolyl)-1H-quinoline-3-carboxamide] |
| 25 to 100 | Nc1cc(NC(=O)c2c[nH]c3ccccc3c2=O)cc(C(F)(F)F)c1 [Compound 429, N-[3-amino-5-(trifluoromethyl)phenyl]-4-oxo-1H-quinoline-3-carboxamide] |

— patent publication US8802700B2 (Vertex Pharmaceuticals Incorporated, priority 2010, dated 2014)
